Article PMC10518257 (Nature Cancer, 2023)
Values joined by “and” are separate entries in the source; they are usually repeats but may differ in a detail not shown here. Equal values may be shown once. Read-outs that look alike come from different tables or passages of the source.

What was measured:
Ba/F3 cells = assay: Growth inhibition assay in Ba/F3 cells (CellTiter-Glo, 72 h); format: cell-based
[1] = tested on: Ba/F3 cells expressing KIF5B–RET^WT; assay: as above; format: cell-based
Ba/F3-CCDC6::RET^S904F = assay: as above; format: cell-based
[2] = tested on: Ba/F3 cells expressing KIF5B–RET^G810S; assay: as above; format: cell-based; conditions: replicate Sets 1-3
TT cells (RET C634W) = assay: Dose-response western blotting, EC50 for inhibition of protein phosphorylation; format: cell-based; conditions: Homo sapiens
[3] = tested on: HBECp53-RET cells (CCDC6-RET fusion); assay: Growth inhibition (alamarBlue, 96 h); format: cell-based, human; conditions: for raw viability signal (Source Data Fig. 3b-c): HBEC-RET, replicate sets
LC-2/ad cells = assay: Growth inhibition (alamarBlue, 96 h); format: cell-based, human; conditions: for raw viability signal (Source Data Fig. 3b-c): LC-2/Ad, replicate sets
LUAD-0002AS1 cells = assay: Growth inhibition (alamarBlue, 96 h); format: cell-based, human; conditions: for raw viability signal (Source Data Fig. 3b-c): LUAD-0002AS1, replicate sets
LUAD-0087AS2 cells = assay: Growth inhibition (alamarBlue, 96 h); format: cell-based, human; conditions: for raw viability signal (Source Data Fig. 3b-c): LUAD-0087AS2, replicate sets
ECLC5B cells = assay: Growth inhibition (alamarBlue, 96 h); format: cell-based, human; conditions: ECLC5B, replicates
[4] = Homo sapiens, 96 h, read-out: IC50 for Inhibition of Growth (95% CI)

## COc1ccc(CN2C3CC2CN(c2ccc(-c4cc(OCC(C)(C)O)cn5ncc(C#N)c45)cn2)C3)cn1 [Selpercatinib]
Ba/F3 cells; Ba/F3 (parental), replicate Sets 1-3
  GI50: 3870 nM and 3570 nM
Ba/F3 cells; Mus musculus, BaF3, 72 h, read-out: GI50 value (Mean ± SD), Ba/F3, CellTiter-Glo, 72 h
  GI50: 3980 nM
Ba/F3 cells; Mus musculus, BaF3, Ba/F3 (parental), replicate Sets 1-3
  GI50: 4490 nM
[1]; Ba/3-KIF5B-RET, replicate sets
  GI50: 6.35 nM and 7.55 nM
[1]; Mus musculus, BaF3, 72 h, read-out: GI50 value (Mean ± SD), Ba/F3-KIF5B::RET, CellTiter-Glo, 72 h
  GI50: 6.68 ± 0.76 nM
[1]; Mus musculus, BaF3, Ba/3-KIF5B-RET, replicate sets
  GI50: 6.13 nM
Ba/F3-CCDC6::RET^S904F; Mus musculus, BaF3, 72 h, read-out: GI50 value (Mean ± SD), Ba/F3-CCDC6::RET^S904F, CellTiter-Glo, 72 h
  GI50: 4.76 ± 3.02 nM
Ba/F3-CCDC6::RET^S904F; read-out: GI50 values, Ba/F3-CCDC6::RET S904F, individual sets (replicate experiments)
  GI50: 4.25 nM and 8 nM and 2.03 nM
[2]; Ba/3-KIF5B-RET-G810S
  GI50: 182 nM and 173 nM
[2]; Mus musculus, BaF3, Ba/3-KIF5B-RET-G810S
  GI50: 143 nM
TT cells (RET C634W); read-out: EC50 for Inhibition of Protein Phosphorylation (95% CI), AKT S473, 2 h, densitometry
  EC50: 1.9 nM
TT cells (RET C634W); read-out: EC50 for Inhibition of Protein Phosphorylation (95% CI), ERK1/2 T202/Y204, 2 h, densitometry
  EC50: 0.2 nM
TT cells (RET C634W); read-out: EC50 for Inhibition of Protein Phosphorylation (95% CI), MEK1/2 S217/S221, 2 h, densitometry
  EC50: 1.9 nM
TT cells (RET C634W); read-out: EC50 for Inhibition of Protein Phosphorylation (95% CI), P70 RSK T421/S424, 2 h, densitometry
  EC50: 1.7 nM
TT cells (RET C634W); read-out: EC50 for Inhibition of Protein Phosphorylation (95% CI), RET Y905, 2 h, densitometry
  EC50: 11.8 nM
TT cells (RET C634W); read-out: EC50 for Inhibition of Protein Phosphorylation (95% CI), S6RP S235/S236, 2 h, densitometry
  EC50: 0.6 nM
[3]; 0.01 nM
  raw viability signal (Source Data Fig. 3b-c): 18093.2 and 9060.84 and 18084.5
[3]; 0.1 nM
  raw viability signal (Source Data Fig. 3b-c): 17267.5 and 9270.44 and 17759.2
[3]; 1 nM
  raw viability signal (Source Data Fig. 3b-c): 17188.9 and 9066.79 and 17837.1
[3]; 10 nM
  raw viability signal (Source Data Fig. 3b-c): 6462.76 and 8147.32 and 16191.8
[3]; 100 nM
  raw viability signal (Source Data Fig. 3b-c): 3445.11 and 2694.56 and 6209.19
[3]; 1000 nM
  raw viability signal (Source Data Fig. 3b-c): 2899.6 and 1772.22 and 5277.83
[3]; 10000 nM
  raw viability signal (Source Data Fig. 3b-c): 2192.17 and 1006.02 and 4021.33
[3]; Homo sapiens, 96 h, read-out: IC50 for Inhibition of Growth (95% CI), HBECp53-RET, alamarBlue, 96 h
  IC50: 26 nM
LC-2/ad cells; Homo sapiens, LC-2-ad, 96 h, read-out: IC50 for Inhibition of Growth (95% CI)
  IC50: 12 nM
LC-2/ad cells; 0.01 nM
  raw viability signal (Source Data Fig. 3b-c): 13499 and 23395.2
LC-2/ad cells; 0.1 nM
  raw viability signal (Source Data Fig. 3b-c): 14768.6 and 22354.3
LC-2/ad cells; 1 nM
  raw viability signal (Source Data Fig. 3b-c): 11358.1 and 22611.3
LC-2/ad cells; 10 nM
  raw viability signal (Source Data Fig. 3b-c): 5849.16 and 13692
LC-2/ad cells; 100 nM
  raw viability signal (Source Data Fig. 3b-c): 4303.48 and 6998.63
LC-2/ad cells; 1000 nM
  raw viability signal (Source Data Fig. 3b-c): 4639.86 and 5076.98
LC-2/ad cells; 10000 nM
  raw viability signal (Source Data Fig. 3b-c): 1761.41 and 1760.41
LUAD-0002AS1 cells; [4]
  IC50: 3 nM
LUAD-0002AS1 cells; 0.01 nM
  raw viability signal (Source Data Fig. 3b-c): 16631.5 and 13192.5 and 12693
LUAD-0002AS1 cells; 0.1 nM
  raw viability signal (Source Data Fig. 3b-c): 14296.3 and 14495.9 and 14138.2
LUAD-0002AS1 cells; 1 nM
  raw viability signal (Source Data Fig. 3b-c): 14160.4 and 9635.41 and 11277.7
LUAD-0002AS1 cells; 10 nM
  raw viability signal (Source Data Fig. 3b-c): 3799.84 and 3179.94 and 4108.28
LUAD-0002AS1 cells; 100 nM
  raw viability signal (Source Data Fig. 3b-c): 2188.78 and 2790.7 and 3166.11
LUAD-0002AS1 cells; 1000 nM
  raw viability signal (Source Data Fig. 3b-c): 1304.58 and 2278.18 and 2772.5
LUAD-0002AS1 cells; 10000 nM
  raw viability signal (Source Data Fig. 3b-c): 935.372 and 1860.61 and 2356.9
LUAD-0087AS2 cells; [4]
  IC50: 11 nM
LUAD-0087AS2 cells; 0.01 nM
  raw viability signal (Source Data Fig. 3b-c): 15388.6 and 12720.2
LUAD-0087AS2 cells; 0.1 nM
  raw viability signal (Source Data Fig. 3b-c): 16047 and 13628.3
LUAD-0087AS2 cells; 1 nM
  raw viability signal (Source Data Fig. 3b-c): 15441.4 and 12355.8
LUAD-0087AS2 cells; 10 nM
  raw viability signal (Source Data Fig. 3b-c): 6632.52 and 4277.26
LUAD-0087AS2 cells; 100 nM
  raw viability signal (Source Data Fig. 3b-c): 5690.09 and 3170.8
LUAD-0087AS2 cells; 1000 nM
  raw viability signal (Source Data Fig. 3b-c): 5599.27 and 2744.81
LUAD-0087AS2 cells; 10000 nM
  raw viability signal (Source Data Fig. 3b-c): 3412.76 and 2132.34
ECLC5B cells; 0.01 nM
  raw viability signal (Source Data Fig. 3b-c): 10363.9 and 7402.21 and 18274
ECLC5B cells; 0.1 nM
  raw viability signal (Source Data Fig. 3b-c): 11026.5 and 8834.98 and 20243.9
ECLC5B cells; 1 nM
  raw viability signal (Source Data Fig. 3b-c): 10668.5 and 7252.95 and 17721.9
ECLC5B cells; 10 nM
  raw viability signal (Source Data Fig. 3b-c): 3598.88 and 1351.95 and 6402.34
